Reference: PMC4460250, “Systems Pharmacology Dissecting Holistic Medicine for Treatment of Complex Diseases: An Example Using Cardiocerebrovascular Diseases Treated by TCM” (Evidence-based Complementary and Alternative Medicine : eCAM, 2015)

How the values were obtained:
[1] = in vivo
[2] = in vivo; cited from earlier work

Structure (SMILES)	Class(High: HIA value ≥0.7; Low: HIA value < 0.7) [1]	HIA(Human Intestinal Absorption) [2]
CC(C)NC[C@H](O)COc1cccc2[nH]ccc12 [Pindolol(S)]	High (key: High: HIA value ≥0.7; Low: HIA value < 0.7)	0.9
Cc1ccccc1N1C(=O)c2cc(S(N)(=O)=O)c(Cl)cc2N[C@@H]1C [Metolazone(S)]	Low (key: High: HIA value ≥0.7; Low: HIA value < 0.7)	0.64
CC(N)C(O)c1ccccc1 (stereo not drawn) [Phenylpropanolamine]	High (key: High: HIA value ≥0.7; Low: HIA value < 0.7)	0.95
C[C@H](c1cc2ccccc2s1)N(O)C(N)=O [Zileuton(R)]	High (key: High: HIA value ≥0.7; Low: HIA value < 0.7)	1
N#C[C@H](O[C@@H]1O[C@H](CO[C@@H]2O[C@H](CO)[C@@H](O)[C@H](O)[C@H]2O)[C@@H](O)[C@H](O)[C@H]1O)c1ccccc1 [Amygdalin(S)]	Low (key: High: HIA value ≥0.7; Low: HIA value < 0.7)	0.05
CC(C)NC[C@H](O)c1cc(O)cc(O)c1 [Metaproterenol(R)]	Low (key: High: HIA value ≥0.7; Low: HIA value < 0.7)	0.43
CCOC(=O)C1=C(C)NC(C)=C(C(=O)OC)[C@@H]1c1cccc([N+](=O)[O-])c1 [Nitrendipine(S)]	High (key: High: HIA value ≥0.7; Low: HIA value < 0.7)	0.88
C[C@]12CC[C@H]3[C@@H](CCC4=CC(=O)CC[C@@]43C)[C@@H]1CC[C@@H]2O [Testosterone]	High (key: High: HIA value ≥0.7; Low: HIA value < 0.7)	1
COc1cccc(C(=O)CCN[C@@H](C)[C@H](O)c2ccccc2)c1 [Oxyfedrine]	High (key: High: HIA value ≥0.7; Low: HIA value < 0.7)	0.84
CCOc1cc(CC(=O)N[C@@H](CC(C)C)c2ccccc2N2CCCCC2)ccc1C(=O)O [Repaglinide(S)]	High (key: High: HIA value ≥0.7; Low: HIA value < 0.7)	1
CN(C)CCC[C@]1(c2ccc(F)cc2)OCc2cc(C#N)ccc21 [Citalopram(R)]	High (key: High: HIA value ≥0.7; Low: HIA value < 0.7)	1
COC(=O)[C@H](c1ccccc1Cl)N1CCc2sccc2C1 [Clopidogrel(S)]	Low (key: High: HIA value ≥0.7; Low: HIA value < 0.7)	0.5
CC(C)=CCN1CCC2(C)c3cc(O)ccc3CC1C2C (stereo not drawn) [Pentazocine]	High (key: High: HIA value ≥0.7; Low: HIA value < 0.7)	0.95
O=C(O[C@H]1C[C@H]2CC[C@@H](C1)[N+]21CCCC1)C(O)(c1ccccc1)c1ccccc1 [Trospium_chloride]	Low (key: High: HIA value ≥0.7; Low: HIA value < 0.7)	0.1
CC(C)(C)NC[C@@H](O)c1cc(O)cc(O)c1 [Terbutaline(S)]	Low (key: High: HIA value ≥0.7; Low: HIA value < 0.7)	0.63
O=C(O)CN(CCN(CC(=O)O)CC(=O)O)CC(=O)O [Edetic_acid]	Low (key: High: HIA value ≥0.7; Low: HIA value < 0.7)	0.05
CCCNC(=O)NS(=O)(=O)c1ccc(Cl)cc1 [Chorpropamide]	High (key: High: HIA value ≥0.7; Low: HIA value < 0.7)	0.95
COc1cccc2c1C(=O)c1c(O)c3c(c(O)c1C2=O)C[C@@](O)(C(C)=O)C[C@@H]3O[C@H]1C[C@H](N)[C@H](O)[C@H](C)O1 [Daunorubicin]	Low (key: High: HIA value ≥0.7; Low: HIA value < 0.7)	0.1
